Here are results for 17 compounds from US7732437B2, “Use of anti-histaminics for acute reduction of elevated intracranial pressure” (Janssen Pharmaceutica, NV., priority 2001, dated 2010).

In data set [1] the test system is Sprague-Dawley rats with closed head injury. The data set can be described thus: Closed Head Injury (CHI) model, severe head injury. The following applies: for Effect on ICP: 0.5 mg/kg/min for 10 min, first 15 minutes, 6 rats; for Decision (sequential statistical evaluation) / Delta %: average change of the relative ICP from baseline over the treatment period: bolus of 1 mg/kg in 1 min, then infusion of 0.5 mg/kg/min for 44 min.
Text: (§1) A clinically relevant rat model for traumatic brain injury was used to test the compounds according to the invention and the commercially available compounds. […] Trauma was induced in intubated, isoflurane anesthetized (1.5% isoflurane in a mixture of 30% O2 and 70% N2O) Sprague-Dawley rats (380-400 g) stereotaxically positioned on a table mounted on 4 springs. A 400 g steel cylinder, protected with a 9 mm diameter silicon disc, was dropped on the unprotected skull from a height of either 70 cm or 50 cm (respectively ‘severe’ and ‘moderate’ head injury). The impact area was centered between bregma and lamda. ICP was recorded using a Codman microsensor probe inserted in the parietal cortex. […] The severe head injury mode was used for the evaluation of pharmacological effects immediately after trauma (screening procedure). […] In pharmacological studies, animals with a pathological ICP between 12.5 and 35 mm Hg were included. The changes in ICP, mean arterial blood pressure (MABP) and cerebral perfusion pressure CPP (=MABP—CPP) were expressed as percentage of the initial value at onset of the treatment.
(§2) On a weekly base, 4 treated groups of 3 rats were compared with 3 saline treated animals. Since conventional statistical methods require a larger amount of animals, a sequential procedure was used. Sequential methods operate in different stages. At each stage, a group of animals was selected as homogeneous as possible. Animals were randomly allocated to either drugs or saline. […] Given the biological relevant level of activity that must be detected, the expected fraction of false positive and negative results was known and fixed. A sequential two-sample grouped rank test was used.
(§3) Treatment was started at 20 min after severe head injury and involved administering a dose of 0.5 mg/kg/min during 10 minutes, followed by 0.1 mg/kg/min during 50 min.
(§4) Ranitidine was infused for 6 min at a dose of 2 mg/kg/min in the rat CHI-model after inflicting severe head injury. Solvent (NaCl+H2T) was given at the same rate. In each group, 6 rats were treated. […] The percentage of reduction are calculated as % change of the ICP recorded at the onset of the treatment and at the end of the infusion.
(§5) A number of commercially available H1- and H2-antagonists was infused for 10 min at a dose of 0.5 mg/kg/min in the rat CHI-model after inflicting severe head injury. Solvent (NaCl+H2T) was given at the same rate. In each group, 6 rats were treated.

Data set [2] has the same test system. The following applies: for effect on the lowering of the blood pressure: rat, in vivo.
Text: as §1, §2, §3, §4, §5
For data set [3], the target named is T1, human histamine H1-receptor (Homo sapiens, UniProt P35367).
T1 construct: expressed in transfected cells; host or cells: CHO cells
T1 sequence (P35367 whole entry): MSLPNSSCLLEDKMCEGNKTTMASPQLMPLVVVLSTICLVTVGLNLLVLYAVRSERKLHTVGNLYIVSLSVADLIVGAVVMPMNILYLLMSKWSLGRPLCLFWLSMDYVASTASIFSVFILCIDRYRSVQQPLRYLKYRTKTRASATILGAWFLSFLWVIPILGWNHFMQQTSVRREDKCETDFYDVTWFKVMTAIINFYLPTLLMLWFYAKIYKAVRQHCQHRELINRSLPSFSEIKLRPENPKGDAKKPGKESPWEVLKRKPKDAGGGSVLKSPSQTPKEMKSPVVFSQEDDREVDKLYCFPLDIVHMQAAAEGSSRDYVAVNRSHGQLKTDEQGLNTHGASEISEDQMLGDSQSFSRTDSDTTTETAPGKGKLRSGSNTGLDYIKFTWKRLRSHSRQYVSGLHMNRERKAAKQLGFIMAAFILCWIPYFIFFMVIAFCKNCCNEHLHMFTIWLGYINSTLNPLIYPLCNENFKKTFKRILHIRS
The experiment in a line: Radioligand binding, histamine H1-receptor, competitive inhibition of [3H]Pyrilamine. The following applies: CHO-cells transfected with the human histamine H1-receptor, read-out: H1-antagonist activity (pIC50) (converted). Here is the method:
Competitive inhibition of [^3H] […] Incubation was done during 150 min at 22° C.

Data set [4] concerns non-traumatised rats. The experiment in a line: ICP and blood pressure in non-traumatized rats. Format: in vivo, rat. The following applies: for effects of H2-agonists (ICP, blood pressure): dimaprit 0.5 mg/kg/min for 10 minutes, impromidine increasing doses up to 3.75 mg/kg/hour; for effects of H2-agonists on blood pressure and ICP, high dose: dimaprit 2 mg/kg/min for 10 minutes, impromidine bolus of 0.5 mg/kg; for effect on ICP, MABP and CPP in non-traumatised rats: i.v. 0.5 mg/kg/min 10 minutes, then 0.1 mg/kg/min 50 min, anaesthetised. Here is the method:
For comparison, two commercially available H2-agonists (dimaprit and impromidine) were also tested by infusion into non-traumatized rats, using a dose of 0.5 mg/kg/min for 10 minutes for dimaprit and increasing doses up to 3.75 mg/kg/hour for impromidine.
Rats The effect of Compound 2, Compound 1 and Racemate (comp. 1 and comp. 2) on ICP, MABP and CPP was tested in anaesthetised non-traumatised rats. […] Conclusion

Data set [5] concerns traumaticaly induced brain edema. The following applies: prior treatment; cited from earlier work.
Data set [6] has as its system Sprague-Dawley rats with closed head injury. The experiment in a line: Closed Head Injury (CHI) model, moderate head injury, treatment 24 h after trauma. The following applies: for effect on saturation of brain haemoglobin with oxygen HbSat (NIRS) / effect on the redox state of CytOx (NIRS) / effect on total brain haemoglobin concentration [HbTot] (NIRS): i.v. 0.5 mg/kg.min 10 min, then 0.1 mg/kg.min 45 min, 24 h after moderate head injury. Format: in vivo, rat. The source says: The impact area was centered between bregma and lamda.
Near-infrared spectroscopy (NIRS) of the rat brain ‘in vivo’ allows to quantify non-invasively saturation of brain haemoglobin with oxygen (HbSat) and total brain haemoglobin concentration ([HbTot]). The latter is a measure for cerebral blood volume (CBV). Changes in the redox state of the mitochondrial enzyme cytochrome oxidase (CytOx), an indicator for tissue oxygenation, can also be monitored.
HbSat is not affected by compound 1 and the racemate (Comp. 1 and Comp. 2).
The effects of treatment with Compound 2 (i.v. infusion at a dose of 0.1 mg/kg.min during 30 min) at 24 h after moderate trauma were studied using different anesthetics (isoflurane, chloralhydrate, pentobarbital). When chloralhydrate (400 mg/kg i.p) is used as anesthetic, ICP decreases to 75% of initial value and MABP gradually increases to 110% of initial value (medians, n=6). […] Barbiturates also reduce the ICP and an important additional effect can be obtained with the compound.

In data set [7] the target is T2, histamine H2-receptor (Cavia porcellus, UniProt P47747).
T2 construct: using guinea pig striatum cells and [^125I]APT as the radioligand; from tissue; host or cells: guinea pig striatum
T2 sequence (P47747 whole entry): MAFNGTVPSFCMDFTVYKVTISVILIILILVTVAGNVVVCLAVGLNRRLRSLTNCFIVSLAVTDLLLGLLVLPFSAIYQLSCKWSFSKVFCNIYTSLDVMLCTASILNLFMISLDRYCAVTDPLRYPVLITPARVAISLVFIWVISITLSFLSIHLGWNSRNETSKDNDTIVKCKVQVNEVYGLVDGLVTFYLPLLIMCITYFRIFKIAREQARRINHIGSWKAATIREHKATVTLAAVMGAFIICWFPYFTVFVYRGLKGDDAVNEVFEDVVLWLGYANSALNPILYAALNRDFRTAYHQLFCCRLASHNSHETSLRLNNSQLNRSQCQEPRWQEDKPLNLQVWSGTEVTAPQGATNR
The data set can be described thus: Radioligand binding, histamine H2-receptor, guinea pig striatum cells, [125I]APT. The following applies: [125I]APT 0.1 nM, 150 min at 22° C., read-out: H2-antagonist activity (pIC50) (converted).

Where [8] appears, read: 0.5 mg/kg/min 10 min, then 0.1 mg/kg/min 50 min, start 20 min after severe CHI, n = 10.
Setting [9] is: continuous infusion of 0.1 mg/kg.min.
Setting [10] is: i.v. 0.1 mg/kg.min 30 min, chloralhydrate 400 mg/kg i.p. anesthesia, n=6.
The mark [11] stands for this setting: i.v. 0.1 mg/kg.min 30 min, pentobarbital 60 mg/kg i.p. anesthesia, n=6.

Molecules are shown by their SMILES. Read-outs that look alike come from different tables or passages of the source. Marks after values point to notes of the source that are not given here.

With `CC(CN1c2ccccc2Sc2ccccc21)N(C)C` (stereo not drawn) [Promethazine, reference compound], the “Effect on ICP” value in data set [1] (severe head injury) is reported as “−”. In data set [2], the “effect on the lowering of the blood pressure” value (“effect on the lowering” for short) is listed as “no or little effect”.

As to `Cc1nc2n(C)c3ccccc3n2c(=O)c1CCN1CCC(C2c3ccccc3CCn3c2nc2ccccc23)CC1Cc1ccccc1` (racemic) [Compound 15], in data set [1], the “Decision (sequential statistical evaluation)” value (“Decision” for short) was “active” and the “Delta %: average change of the relative ICP from baseline over the treatment period” value is reported as −23.3%. Also, the IC50 in data set [3] was 0.316 µM.

In the case of `Cc1nc[nH]c1CSCCN=C(N)NCCCc1cnc[nH]1` [impromidine], in data set [4], the “effects of H2-agonists (ICP, blood pressure)” value is “No effects were observed”; the “effects of H2-agonists on blood pressure and ICP, high dose” value is “blood pressure and ICP were observed to drop, but recovered after the treatment”.

As for `CN(C)CCC(c1ccc(Cl)cc1)c1ccccn1` (stereo not drawn) [Chlorpheniramine, reference compound], the “Effect on ICP” value in data set [1] (severe head injury) is “−”. Moreover, the “effect on the lowering” value in data set [2] is recorded as “no or little effect”.

As to `CN(C)CCCSC(=N)N` [dimaprit], in data set [4], the “effects of H2-agonists (ICP, blood pressure)” value is on record as “No effects were observed”; the “effects of H2-agonists on blood pressure and ICP, high dose” value was “blood pressure and ICP were observed to drop, but recovered after the treatment”.

Take `Cc1nc2n(C)c3ccccc3n2c(=O)c1CCN1CCC(C2c3ccccc3CCn3c2nc2ccccc23)CC1Cc1ccccc1` (single isomer, unassigned) [Compound 17]: in data set [1], the “Decision” value was “active” and the “Delta %: average change of the relative ICP from baseline over the treatment period” value is given as −8.9%. The IC50 in data set [3] is 0.631 µM.

Regarding `c1cc(CN2CCCCC2)cc(OCCCNc2nc3ccccc3s2)c1` [Zolantidine, reference compound], in data set [1] (severe head injury), the “Effect on ICP” value is listed as “−”. In addition, in data set [2], the “effect on the lowering” value is reported as “no or little effect”.

In the case of `Cc1nc2n(C)c3ccccc3n2c(=O)c1CCN1CCC(C2c3ccccc3CCn3c2nc2ccccc23)CC1Cc1ccccc1` (stereo not drawn) [Compound 30], in data set [1], the “Decision” value was “active” and the “Delta %: average change of the relative ICP from baseline over the treatment period” value is −9.3%. Besides, the IC50 in data set [3] is 0.794 µM.

As for `COc1ccc(CN(CCN(C)C)c2ccccn2)cc1` [Pyrilamine], the “increased brain water content and elevated plasma and brain histamine levels” value in data set [5] is “failed to reduce the increased brain water content”. Besides, in data set [2], the “effect on the lowering” value is “no or little effect”.

As to `Cc1nc2n(C)c3ccccc3n2c(=O)c1CCN1CCC(C2c3ccccc3CCn3c2nc2ccccc23)CC1Cc1ccccc1` (single isomer, unassigned) [Compound 2, pyrimido[1,2-a]benzimidazol-4(10H)-one, 3-[2-[4-(11 ,12-dihydro-6H-benzimidazo[2,1-b][3]benzazepin-6-yl)-2-(phenylmethyl)-1-piperidinyl]ethyl]-2,10-dimethyl (E)-2-butenedioate (2:3) hydrate (1:1)], in data set [1] (setting [8]), the “CPP (%), average change over treatment period, median (95% C.I.)” value is listed as 24.2 (0.9; 43.6)* %; the “ETCO2 (%), average change over treatment period, median (95% C.I.)” value is recorded as −4.4 (−8.9; 2.3)* %; the “Heart rate(%), average change over treatment period, median (95% C.I.)” value is −9.6 (−21.8; 0.7) %; the “ICP (%), average change over treatment period, % change of initial value, median (95% C.I.)” value was −15.3 (−20.0; −9.5)* %. Also, in data set [1] (setting [8]), the “MABP (%), average change over treatment period, median (95% C.I.)” value was 18.8 (−2.0; 31.0)* % and the “Resp. rate(%), average change over treatment period, median (95% C.I.)” value was 6.6 (−1.3; 14.6) %. Besides, in data set [1] (setting [9]), the “increases in MABP observed” value was at most 20%, the “maximal reduction of ICP versus infusion preceded by loading dose” value was “comparable” and the “time required to obtain maximal reduction of ICP (median)” value stood at 30 min. In addition, the “median MABP increase at the end of the infusion” value in data set [1] (continuous infusion of 0.1 mg/kg.min, n=6) is 9%. Further, the IC50 in data set [3] was 0.794 µM. Moreover, the “effect on ICP, MABP and CPP in non-traumatised rats” value in data set [4] is recorded as “comparable with those obtained in the traumatized animals”. For the same compound, in data set [6] (setting [10]), the “ICP, % of initial value (median)” value is reported as 75 % of initial value and the “MABP, % of initial value (median)” value was 110 % of initial value. In addition, in data set [6] (setting [11]), the “ICP, % of initial value (median)” value was 64 % of initial value and the “MABP, % of initial value at the end of the infusion (median)” value is 141 % of initial value. Besides, in data set [6], the “effect on saturation of brain haemoglobin with oxygen HbSat (NIRS)” value is given as “small but statistically significant reduction”, the “effect on the redox state of CytOx (NIRS)” value is reported as “do not have an effect” and the “effect on total brain haemoglobin concentration [HbTot] (NIRS)” value is on record as “do not have a significant effect”.

For `CN/C(=N/CCSCc1nc[nH]c1C)NC#N` [Cimetidine, cimetidine], the “increased brain water content and elevated plasma and brain histamine levels” value in data set [5] is “prevented”.

With `CN(C)CCOC(c1ccccc1)c1ccccc1` [Diphenhydramine, diphenhydramine, reference compound], the “reduction in ICP” value in data set [1] (1 mg/kg/min for 10 min, severe head injury, three rats) is reported as 34%. Besides, in data set [2], the “effect on the lowering” value was “no or little effect”.

Turning to `CNC(=C[N+](=O)[O-])NCCSCc1ccc(CN(C)C)o1` [Ranitidine, ranitidine, reference compound], the IC50 in data set [7] is 3.16 µM.

On to `OCCOCCN1CCN(C(c2ccccc2)c2ccc(Cl)cc2)CC1` (stereo not drawn) [Hydroxyzine], for which the “Effect on ICP” value in data set [2] (iv, 0.5 mg/kg, 0.25 h) is given as “−”.

With `Cc1nc2n(C)c3ccccc3n2c(=O)c1CCN1CCC(C2c3ccccc3CCn3c2nc2ccccc23)CC1Cc1ccccc1` (racemic) [Racemate (comp. 1 and comp. 2), pyrimido[1,2-a]benzimidazol-4(10H)-one, 3-[2-[4-(11 ,12-dihydro-6H-benzimidazo[2,1-b][3]benzazepin-6-yl)-2-(phenylmethyl)-1-piperidinyl]ethyl]-2,10-dimethyl (E)-2-butenedioate (2:3) hydrate (1:1)], in data set [1] (setting [8]), the “CPP (%), average change over treatment period, median (95% C.I.)” value is listed as 7.5 (−2.4; 15.5) %; the “ETCO2 (%), average change over treatment period, median (95% C.I.)” value is reported as 2.4 (−7.8; 3.8) %; the “ICP (%), average change over treatment period, % change of initial value, median (95% C.I.)” value is reported as −19.1 (−24.9; −10.8)* %; the “MABP (%), average change over treatment period, median (95% C.I.)” value is listed as 0.6 (−5.1; 8.5) %. Further, the “Resp. rate(%), average change over treatment period, median (95% C.I.)” value in data set [1] (setting [8]) was 9.6 (3.0; 14.8) %. Further, in data set [4], the “effect on ICP, MABP and CPP in non-traumatised rats” value is “comparable with those obtained in the traumatized animals”. Also, in data set [6], the “effect on saturation of brain haemoglobin with oxygen HbSat (NIRS)” value was “not affected”, the “effect on the redox state of CytOx (NIRS)” value is listed as “do not have an effect” and the “effect on total brain haemoglobin concentration [HbTot] (NIRS)” value was “do not have a significant effect”.

`CCOC(=O)Cn1c2ccccc2n2c(=O)c(CCN3CCC(C4c5ccccc5CCn5c4nc4ccccc45)CC3Cc3ccccc3)c(C)nc12` (stereo not drawn) [Compound 32]: in data set [1], the “Decision” value is reported as “active” and the “Delta %: average change of the relative ICP from baseline over the treatment period” value is listed as −13.9%. Also, the IC50 in data set [3] is 0.398 µM.

In the case of `Cc1nc2n(C)c3ccccc3n2c(=O)c1CCN1CCC(C2c3ccccc3CCn3c2nc2ccccc23)CC1Cc1ccccc1` (single isomer, unassigned) [Compound 47], in data set [1], the “Decision” value is on record as “active” and the “Delta %: average change of the relative ICP from baseline over the treatment period” value is reported as −12.0%. In data set [3], the IC50 is 0.398 µM.
